The text below walks through data of US20110206739A1, “COMPOSITIONS AND METHODS FOR THE PREPARATION OF NANOEMULSIONS” (UNIVERSITY OF MASSACHUSETTS, priority 2008, published 2011).

The test system of data set [1] is Malme-3M melanoma cancer cells. In words: Curcumin cell inhibition, MTS assay after 72 hrs. It is filed as cell-based, human. How it is done:
The curcumin nanoemulsion was prepared by combining gelatin and EMG-20 or gelatin and Solutol® HS15 in a 1:1 weight ratio. The cell inhibition activity of the blank nanoemulsion, a 30 micromolar DMSO-curcumin mixture, a 0.030 micromolar DMSO-curcumin mixture, and a 0.03 micromolar curcumin nanoemulsion were contacted with melanoma cancer cell lines.

The nature of data set [2]: Electrokinetic potential (zeta potential). The class given is physicochemical. The conditions noted are these: at 10 mv. Here is the method: The electrokinetic potential (“Zeta-potential”) of the curcumin nanoemulsion was measured (FIG. 10A) and compared to the corresponding electrokinetic potential for curcumin in water (FIG. 10B). The zeta potential of a colloidal system corresponds to the electric potential in the interfacial double layer (DL) at the location of the slipping plane versus a point in the bulk fluid away from the interface (i.e., the potential difference between the dispersion medium and the stationary layer of fluid attached to the dispersed particle). For small particles (e.g., nanoemulsions) a higher zeta potential corresponds to greater stability of a colloidal dispersion, representing a greater degree of repulsion between adjacent particles in the dispersion to resist particle/droplet aggregation. A zeta potential of −23.5 (wall zeta potential of −50.3) was measured for the curcumin nanoemulsion (FIG. 10A), compared to a zeta wall potential at 10 mv of −2.53 for curcumin in water (FIG. 10B).

The test system of data set [3] is melanoma cancer cells (Malme-3M). In words: 5-FU Cell Proliferation Assay (MTS Assay). Conditions: 24 μM, compared with 5-FU nanoemulsion. The class given is cell-based, human. Here is the method: The in vitro activity of the 5-FU nanoemulsion was measured against three cancer cell lines (CCL-221, Malme-3M, and CCL-2) using a Cell Proliferation Assay (MTS Assay). The MTS Assay uses a tetrazolium compound (MTS) and an electron coupling reagent (PES) was purchased from Fisher Scientific (Pittsburgh, Pa.). The tetrazolium compound (MTS) can be bioreduced into a colored formazan product by dehydrogenase enzymes in metabolic cells. Formazan is a water-soluble compound and can be dissolved in the culture medium, the quantity of formazan product as measured by the absorbance at 490 nm was directly proportional to the number of living cells in culture.
After incubation for 5 hours, the cells were attached to the bottom of the well and the diluted nanoemulsions were then added and incubated for 48 hours. Subsequently, the media were removed by aspiration and 100 microliter of fresh phenol free cell culture media was pipetted followed by adding 20 microliter of MTS reagent into each well. The plate was incubated for 2 hours at 37 degrees C. in a humidified, 5% CO2 atmosphere and the 96-well plate reader was used to measure the absorbance at 490 nm. The 5-FU nanoemulsions prepared in this study had 20 nm average particle size.

The next data set deals with PL-45 cells. The experiment in a line: Paclitaxel growth inhibition, 48 hours. The conditions noted are these: PL-45, after 48 hours of treatment. The class given is cell-based, human. Here is the method: FIG. 16C is a graph showing dose-dependant anti cancer activity of paclitaxel in DMSO and paclitaxel in a nanoemulsion made up of rice bran oil and Solutol® HS15 against PL-45 cells after 48 hours of treatment. The graphs indicate a 44% and 40% growth inhibition when treated with paclitaxel in DMSO and paclitaxel in nanoemulsion respectively. […] The error bars represent the standard error of mean for experiments done in duplicates.

The next data set concerns P10.05 cells. In words: Paclitaxel growth inhibition, 48 hours. The conditions noted are these: P10.05, after 48 hours of treatment. It is filed as cell-based, human. An excerpt:
(§1) The graphs indicate a 60% and 52% growth inhibition when treated with paclitaxel in DMSO and paclitaxel in nanoemulsion respectively. […] The error bars represent the standard error of mean for experiments done in duplicates.

The next data set concerns CCL-221 cells. The experiment in a line: Paclitaxel growth inhibition, 48 hours. It is filed as cell-based, human. The conditions noted are these: CCl-221, after 48 hours of treatment.
Source text: as §1

Data set [4] is described as follows: Particle size by dynamic laser light scattering (Malvern Zetasizer-S). It is filed as physicochemical. Here is the method: Unless otherwise indicated, “average particle size” refers to the z-average particle or droplet diameter measured by dynamic laser light scattering, also called Photon correlation spectroscopy (e.g., using the Malvern Zetasizer-S instrument, Malvern Instruments Inc., Southborough Mass.). Unless otherwise indicated, the z-average particle sizes were determined using the Malvern Zetasizer-S instrument with a 4 mW He—Ne laser operating at a wavelength of 633 nm and an avalanche photodiode detector (APD). The z-average diameter is the mean hydrodynamic diameter and the polydispersity index is an estimate of the width of the distribution. Both z-average diameter and polydispersity index (“PDI”) are calculated according to the International Standard on dynamic light scattering, ISO13321.
(§2) Particle sizes of all the formulations indicated in the Examples below were measured by dynamic laser light scattering, also called Photon correlation spectroscopy, using the Malvern Zetasizer-S instrument (Malvern Instruments Inc., Southborough Mass.). […] The particle diffusion (translational diffusion) due to Brownian motion was measured in the instrument and related to the size of the parameter. The mean hydrodynamic diameter (DH) was calculated from the Strokes-Einstein equation. The range of particle sizes which can be measured by the Zetasizer is from 0.6 to 6000 nm.

The nature of data set [5]: Stability of Coumarin preparations over several days stored at room temperature (size, PDI). It is filed as physicochemical. The conditions noted are these: for Size: in nm (unit assumed).
Source text: The fluorescence intensity of a Coumarin 6 nanoemulsion can be increased by adding a polysaccharide polymer such as dextran to the SANE formulation. As described in Example 2, the fluorescent dye Coumarin 6 SANE composition can optionally comprise dextran to increase fluorescence intensity of the SANE dye composition. Example 2 describes preparation of Coumarin 6 SANE dye formulations with and without the addition of the polymer dextran. Example 2 also describes measured particle size, stability and fluorescence intensity determined in samples of (a) DMSO coumarin 6 preparation, (b) nanoemulsion of coumarin 6 preparation without dextran, and (c) nanoemulsion of coumarin 6 with dextran.
As shown by the data in Table 2 is that over a 3 day period, these SANE preparations of Coumarin 6 were stable (determined by particle size changes) at room temperature for at least 3 days compared to the DMSO coumarin 6 preparation.
as §2, with “Mass.). Each sample was diluted immediately before measurement with distilled water to avoid multiple light scattering effects.” for “Mass.).”

As to `COc1cc(/C=C/C(=O)CC(=O)/C=C/c2ccc(O)c(OC)c2)ccc1O` [curcumin in DMSO, (1E,6E)-1,7-bis(4-hydroxy-3-methoxyphenyl)-1,6-heptadiene-3,5-dione], the “inhibition of melanoma cancer cell proliferation” value in data set [1] (0.03 micromolar) is “efficacy against the melanoma cancer cells is lost”; in data set [1] (30 micromolar), “inhibited melanoma cancer cell proliferation”.
On to `COc1cc(/C=C/C(=O)CC(=O)/C=C/c2ccc(O)c(OC)c2)ccc1O` [curcumin in water, (1E,6E)-1,7-bis(4-hydroxy-3-methoxyphenyl)-1,6-heptadiene-3,5-dione], for which, in data set [2], the zeta wall potential is −2.53.
`O=c1[nH]cc(F)c(=O)[nH]1` [non-encapsulation 5-FU, 5-fluorouracil]: in data set [3], the “inhibition of cell proliferation” value is recorded as “not as effective”.
For `CC(=O)O[C@H]1C(=O)[C@@]2(C)[C@H]([C@H](OC(=O)c3ccccc3)[C@]3(O)C[C@H](OC(=O)[C@H](O)[C@@H](NC(=O)c4ccccc4)c4ccccc4)C(C)=C1C3(C)C)[C@]1(OC(C)=O)CO[C@@H]1C[C@@H]2O` [paclitaxel in DMSO, paclitaxel], the growth inhibition in the data set with PL-45 cells turned out to be 44%; in the data set with P10.05 cells, 60%; with CCL-221 cells, 60%. Moreover, the “average particle (droplet) size, Z-average” value in data set [4] is ≥ 1,000 nm.
Turning to Coumarin 6 [DMSO COUMARIN], the PDI turned out to be 0.457 in data set [5] (0 hrs); 0.857 in data set [5] (72 hrs); 0.857 in data set [5] (96 hrs); 0.857 in data set [5] (120 hrs); 0.857 in data set [5] (144 hrs); 0.857 in data set [5] (240 hrs). The Size in data set [5] (0 hrs) is recorded as 1373; in data set [5] (72 hrs), 1373; in data set [5] (96 hrs), 2142; in data set [5] (120 hrs) it was 6000; in data set [5] (144 hrs), 6000; in data set [5] (240 hrs), 6000.
